IC50 data for 28 compounds are collected here from patent US11702409B2, “Pyrazolyl derivatives useful as anti-cancer agents” (NOVARTIS AG, priority 2019, dated 2023).

Each structure is given as a SMILES string. Some results are limits rather than exact numbers.

In the experiment the target is KRasG12C (M1-K169, biotinylated on the N-terminus) (Homo sapiens (Human), UniProt P01116, G12C). As to the kind of experiment: Covalent competition assay (scintillation proximity assay, competition with radiolabeled covalent probe Compound B). It is filed as binding. As to conditions: in vitro KRASG12C activity; 10 nM KRasG12C:GDP, 25 nM radio-ligand and 475 nM unlabelled ligand, incubated 2 hours; read-out: Covalent Competition Assay IC50. How it is done:
The cells were lysed by 4 passages through an Avestin Emulsiflex at about 20000 psi and insoluble debris removed by centrifugation and filtered through a 0.45 μm Durapore membrane (Millipore). […] The protein in the flow through was subjected to a final polishing step on a HiLoad 16/60 Superdex 200 prep grade size-exclusion column pre-equilibrated with SEC-buffer (20 mM HEPES pH 7.4, 150 mM NaCl, 5 mM MgCl2, 1 μM GDP).
A scintillation proximity assay (SPA) was used to determine the potency of the compounds. This assay measures the ability of the test compound to compete with the radiolabeled covalent probe for binding to and covalently modify KRASG12C.
A serial dilution of the compounds to be tested is mixed with a fixed concentration of the radiolabeled covalent probe before incubation with KRASG12C:GDP as described below.
The reaction was started by addition of KRasG12C (M1-K169, biotinylated on the N-terminus) to the compounds and incubated for 2 hours with continuous agitation allowing for full modification of KRasG12C with probe or test compounds. […] The assay buffer contained 20 mM Tris-HCl pH 7.5 (Invitrogen), 150 mM NaCl (Sigma Aldrich), 0.1 mM MgCl2 (Sigma Aldrich), and 0.01% Tween-20 (Sigma Aldrich).
Evaluation was carried out using assay data analysis software (such as the standard Novartis in-house Helios software application, Novartis Institutes for BioMedical Research, unpublished) using the methods described in Formenko et al., Robust Regression for high-throughput screening.
Evaluation can also be carried out using commercially available software which is designed to derive IC50 values using 4-parameter fits (e.g. GraphPad Prism, XL fit).
(In general: Scintillation proximity formats need no separation of bound from free tracer.)
One may read the IC50 as the point on the concentration scale where inhibition reaches its midpoint. On to `C=CC(=O)N1CC2(CC(n3nc(-c4cnn(S(=O)(=O)C5CC5)c4)c(-c4c(Cl)c(C)cc5[nH]ncc45)c3C)C2)C1` (single isomer, unassigned) [Example 36a], for which the IC50 was 516 nM.
The figure for `C=CC(=O)N1CC2(CC(n3nc(-c4cnn(S(=O)(=O)C5CC5)c4)c(-c4c(Cl)c(C)cc5[nH]ncc45)c3C)C2)C1` (single isomer, unassigned) [Example 36b] is > 50000 nM.
For `C=CC(=O)N1CC2(CC(n3nc(-c4cnc5c(cnn5C)c4)c(-c4c(Cl)c(C)cc5[nH]ncc45)c3C)C2)C1` (single isomer, unassigned) [Example 37a], the IC50 came out at 112 nM.
For `C=CC(=O)N1CC2(CC(n3nc(-c4cnc5c(cnn5C)c4)c(-c4c(Cl)c(C)cc5[nH]ncc45)c3C)C2)C1` (single isomer, unassigned) [Example 37b], the IC50 was > 50000 nM.
In the case of `C=CC(=O)N1CC2(CC(n3nc(-c4cnc5c(c4)ncn5C)c(-c4c(Cl)c(C)cc5[nH]ncc45)c3C)C2)C1` (single isomer, unassigned) [Example 38a], the IC50 was found to be 487 nM.
The value for `C=CC(=O)N1CC2(CC(n3nc(-c4cnc5c(c4)ncn5C)c(-c4c(Cl)c(C)cc5[nH]ncc45)c3C)C2)C1` (single isomer, unassigned) [Example 38b] was > 50000 nM.
For the compound `C=CC(=O)N1CC2(CC(n3nc(-c4ccc(COCCOC)cc4)c(-c4c(Cl)c(C)cc5[nH]ncc45)c3C)C2)C1` (single isomer, unassigned) [Example 39a], the IC50 came out at 32 nM.
As for `C=CC(=O)N1CC2(CC(n3nc(-c4ccc(COCCOC)cc4)c(-c4c(Cl)c(C)cc5[nH]ncc45)c3C)C2)C1` (single isomer, unassigned) [Example 39b], the IC50 is > 5000 nM.
For the compound `C=CC(=O)N1CC2(CC(n3nc(-c4ccc5nc(NC)ncc5c4)c(-c4c(Cl)c(C)cc5[nH]ncc45)c3C)C2)C1` (single isomer, unassigned) [Example 40a], the concentration for half-maximal inhibition (IC50) came out at 99 nM.
As to `C=CC(=O)N1CC2(CC(n3nc(-c4ccc5nc(NC)ncc5c4)c(-c4c(Cl)c(C)cc5[nH]ncc45)c3C)C2)C1` (single isomer, unassigned) [Example 40b], the IC50 was > 50000 nM.
As to `C=CC(=O)N1CC2(CC(n3nc(-c4ccc5nn(CCOC)cc5c4)c(-c4c(Cl)c(C)cc5[nH]ncc45)c3C)C2)C1` (single isomer, unassigned) [Example 41a, 1-(6-{(4M)-4-(5-Chloro-6-methyl-1H-indazol-4-yl)-3-[2-(2-methoxyethyl)-2H-indazol-5-yl]-5-methyl-1H-pyrazol-1-yl}-2-azaspiro[3.3]heptan-2-yl)prop-2-en-1-one], the IC50 stood at 11 nM.
The figure for `C=CC(=O)N1CC2(CC(n3nc(-c4ccc5nn(CCOC)cc5c4)c(-c4c(Cl)c(C)cc5[nH]ncc45)c3C)C2)C1` (single isomer, unassigned) [Example 41b] is 941 nM; for `C=CC(=O)N1CC2(CC(n3nc(-c4ccc5nn(CC(C)(C)O)cc5c4)c(-c4c(Cl)c(C)cc5[nH]ncc45)c3C)C2)C1` (single isomer, unassigned) [Example 42a, 1-(6-{(4M)-4-(5-Chloro-6-methyl-1H-indazol-4-yl)-3-[2-(2-hydroxy-2-methylpropyl)-2H-indazol-5-yl]-5-methyl-1H-pyrazol-1-yl}-2-azaspiro[3.3]heptan-2-yl)prop-2-en-1-one] it is 12 nM; for `C=CC(=O)N1CC2(CC(n3nc(-c4ccc5nn(CC(C)(C)O)cc5c4)c(-c4c(Cl)c(C)cc5[nH]ncc45)c3C)C2)C1` (single isomer, unassigned) [Example 42b] it is 1200 nM.
On to `C=CC(=O)N1CC2(CC(n3nc(-c4ccc5nn(CCOCCOC)cc5c4)c(-c4c(Cl)c(C)cc5[nH]ncc45)c3C)C2)C1` (single isomer, unassigned) [Example 43a, 1-{6-[(4M)-4-(5-Chloro-6-methyl-1H-indazol-4-yl)-3-{2-[2-(2-methoxyethoxy)ethyl]-2H-indazol-5-yl}-5-methyl-1H-pyrazol-1-yl]-2-azaspiro[3.3]heptan-2-yl}prop-2-en-1-one], for which the IC50 is 10 nM.
Consider `C=CC(=O)N1CC2(CC(n3nc(-c4ccc5nn(CCOCCOC)cc5c4)c(-c4c(Cl)c(C)cc5[nH]ncc45)c3C)C2)C1` (single isomer, unassigned) [Example 43b], for which the IC50 came to 2900 nM.
The value for `C=CC(=O)N1CC2(CC(n3nc(-c4ccc5c(c4)CCN5CCOC)c(-c4c(Cl)c(C)cc5[nH]ncc45)c3C)C2)C1` (single isomer, unassigned) [Example 44a] was 19 nM; that for `C=CC(=O)N1CC2(CC(n3nc(-c4ccc5c(c4)CCN5CCOC)c(-c4c(Cl)c(C)cc5[nH]ncc45)c3C)C2)C1` (single isomer, unassigned) [Example 44b] was > 5000 nM; that for `C=CC(=O)N1CC2(CC(n3nc(-c4ccnn4CC4CC4)c(-c4c(Cl)c(C)cc5[nH]ncc45)c3C)C2)C1` (single isomer, unassigned) [Example 45a, 1-(6-(4-(5-chloro-6-methyl-1H-indazol-4-yl)-2′-(cyclopropylmethyl)-5-methyl-1H,2′H-[3,3′-bipyrazol]-1-yl)-2-azaspiro[3.3]heptan-2-yl)prop-2-en-1-one] was 235 nM.
As for `C=CC(=O)N1CC2(CC(n3nc(-c4ccnn4CC4CC4)c(-c4c(Cl)c(C)cc5[nH]ncc45)c3C)C2)C1` (single isomer, unassigned) [Example 45b, 1-(6-(4-(5-chloro-6-methyl-1H-indazol-4-yl)-2′-(cyclopropylmethyl)-5-methyl-1H,2′H-[3,3′-bipyrazol]-1-yl)-2-azaspiro[3.3]heptan-2-yl)prop-2-en-1-one], the IC50 is > 50000 nM.
The value for `C=CC(=O)N1CC2(CC(n3nc(-c4ccccn4)c(-c4c(Cl)c(C)cc5[nH]ncc45)c3C)C2)C1` (single isomer, unassigned) [Example 46a, 1-(6-(4-(5-chloro-6-methyl-1H-indazol-4-yl)-5-methyl-3-(pyridin-2-yl)-1H-pyrazol-1-yl)-2-azaspiro[3.3]heptan-2-yl)prop-2-en-1-one] was 423 nM.
Consider `C=CC(=O)N1CC2(CC(n3nc(-c4ccccn4)c(-c4c(Cl)c(C)cc5[nH]ncc45)c3C)C2)C1` (single isomer, unassigned) [Example 46b, 1-(6-(4-(5-chloro-6-methyl-1H-indazol-4-yl)-5-methyl-3-(pyridin-2-yl)-1H-pyrazol-1-yl)-2-azaspiro[3.3]heptan-2-yl)prop-2-en-1-one], for which the IC50 is > 50000 nM.
On to `C=CC(=O)N1CC2(CC(n3nc(-c4ccc(CO)cc4)c(-c4c(Cl)c(C)cc5[nH]ncc45)c3C)C2)C1` (single isomer, unassigned) [Example 47a, 1-(6-{(4M)-4-(5-Chloro-6-methyl-1H-indazol-4-yl)-3-[4-(hydroxymethyl)phenyl]-5-methyl-1H-pyrazol-1-yl}-2-azaspiro[3.3]heptan-2-yl)prop-2-en-1-one], for which the IC50 was found to be 43 nM.
Turning to `C=CC(=O)N1CC2(CC(n3nc(-c4ccc(CO)cc4)c(-c4c(Cl)c(C)cc5[nH]ncc45)c3C)C2)C1` (single isomer, unassigned) [Example 47b, 1-(6-(4-(5-chloro-6-methyl-1H-indazol-4-yl)-3-(4-(hydroxymethyl)phenyl)-5-methyl-1H-pyrazol-1-yl)-2-azaspiro[3.3]heptan-2-yl)prop-2-en-1-one], the IC50 came to 23400 nM.
The value for `C=CC(=O)N1CC2(CC(n3nc(-c4ccncc4C)c(-c4c(Cl)c(C)cc5[nH]ncc45)c3C)C2)C1` (single isomer, unassigned) [Example 49a, 1-(6-(4-(5-chloro-6-methyl-1H-indazol-4-yl)-5-methyl-3-(3-methylpyridin-4-yl)-1H-pyrazol-1-yl)-2-azaspiro[3.3]heptan-2-yl)prop-2-en-1-one] was 227 nM; that for `C=CC(=O)N1CC2(CC(n3nc(-c4ccncc4C)c(-c4c(Cl)c(C)cc5[nH]ncc45)c3C)C2)C1` (single isomer, unassigned) [Example 49b, 1-(6-(4-(5-chloro-6-methyl-1H-indazol-4-yl)-5-methyl-3-(3-methylpyridin-4-yl)-1H-pyrazol-1-yl)-2-azaspiro[3.3]heptan-2-yl)prop-2-en-1-one] was 5380 nM.
The figure for `C=CC(=O)N1CC2(CC(n3nc(-c4ccc(N5CCS(=O)(=O)CC5)cc4)c(-c4c(Cl)c(C)cc5[nH]ncc45)c3C)C2)C1` (single isomer, unassigned) [Example 50a, 1-(6-(4-(5-chloro-6-methyl-1H-indazol-4-yl)-3-(4-(1,1-dioxidothiomorpholino)phenyl)-5-methyl-1H-pyrazol-1-yl)-2-azaspiro[3.3]heptan-2-yl)prop-2-en-1-one] is 35 nM; for `C=CC(=O)N1CC2(CC(n3nc(-c4ccc(N5CCS(=O)(=O)CC5)cc4)c(-c4c(Cl)c(C)cc5[nH]ncc45)c3C)C2)C1` (single isomer, unassigned) [Example 50b, 1-(6-(4-(5-chloro-6-methyl-1H-indazol-4-yl)-3-(4-(1,1-dioxidothiomorpholino)phenyl)-5-methyl-1H-pyrazol-1-yl)-2-azaspiro[3.3]heptan-2-yl)prop-2-en-1-one] it is 4240 nM.
